According to ChEMBL document CHEMBL1201862, “PubChem BioAssay data set” (2004):
Active and inactive are the calls of the source.

Tests used:
Interleukin-8 [1] = target: T1, Interleukin-8 (Homo sapiens, UniProt P10145); assay: Dose Response confirmation of uHTS small molecule hits for cystic fibrosis induced NFkb Inhibitors in a TNFa-induced IL8 counterscreen.; assay type: functional; conditions: read-out: IC50_Mean
Interleukin-8 [2] = target: T1, Interleukin-8; assay: Dose Response confirmation of uHTS small molecule hits for cystic fibrosis induced NFkb Inhibitors in a PAF-induced IL8 counterscreen.; assay type: functional; conditions: read-out: IC50_Mean
Nonstructural protein 1 = Nonstructural protein 1 (Influenza A virus, UniProt Q194T2); assay type: functional, Influenza A virus (A/California/07/2009(H1N1))
[3] = target: Delta-type opioid receptor (Homo sapiens, UniProt P41143); assay: Counterscreen for agonists of heterodimerization of the mu 1 (OPRM1) and delta 1 (OPRD1) opioid receptors: Luminescence-based cell-based high throughput dose response assay to identify agonists of OPRD1 homodimerization. [Related pubchem assays (depositor defined):AID504326, AID504355, AID504692, AID504904, AID504905]; assay type: functional
Mu-type opioid receptor = Mu-type opioid receptor (Homo sapiens, UniProt P35372); assay: Counterscreen for agonists of heterodimerization of the mu 1 (OPRM1) and delta 1 (OPRD1) opioid receptors: Luminescence-based cell-based high throughput dose response assay to identify agonists of OPRM1 homodimerization.; assay type: functional;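 also: U2OS cells expressing OPRM1 and beta-arrestin as split beta-galactosidase partners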
[4] = target: 5-hydroxytryptamine receptor 5A (Homo sapiens, UniProt P47898); assay: Counterscreen for agonists of OPRM1-OPRD1 heterodimerization: luminescence-based cell-based high throughput dose response assay to identify agonists of 5-hydroxytryptamine (serotonin) 5A receptor (HTR5A). [Related pubchem assays (depositor defined):AID504326, AID504355, AID504692, AID504904, AID504905]; assay type: functional
[5] = target: Ras and Rab interactor 1/Tyrosine-protein kinase ABL1 (Homo sapiens, UniProt P00519+Q13671); assay type: functional;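 also: biochemical TR-FRET dose-response test measuring inhibition of binding between Rin1 and Abl proteins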
[6] = reduction of Shn3 3'UTR-driven luciferase in osteoblasts – cell-based, Clone20 osteoblasts, firefly luciferase, cherry-picked, dose response (AID 624132); assay type: functional;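 also: firefly luciferase luminescence from reporter carrying the Shn3 3'UTR in osteoblasts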
[7] = loss of viability in HepG2 cells – cell-based, CellTiter-Glo, cherry-picked, cytotoxicity control for Shn3 inhibitor project, dose response (AID 624134); assay type: functional
[8] = non-specific 3'UTR reporter inhibition in Clone20-Shn3RL – cell-based, Renilla luciferase, cherry-picked, counter-screen for Shn3 inhibitor project, dose response (AID 624133); assay type: functional
[9] = tested on: Streptococcus sp. 'group A'; assay: Streptococcus pyogenes SK(-)GAS viability under kanamycin – luminescence, BacTiterGlo, confirmation, counter-screen for streptokinase expression inhibitor project, dose response (AID 1900); assay type: functional, organism-based
Streptokinase A = target: T2, Streptokinase A (Streptococcus pyogenes serotype M1, UniProt P10520); assay: viability-normalized secreted streptokinase activity reduction – plasminogen activation absorbance, OD405, dose response (AID 1914); assay type: functional, Streptococcus pyogenes M1 GAS;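 also: secreted streptokinase activity via plasminogen activation per viability signal from cell pellet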
T2 sequence (P10520 whole entry): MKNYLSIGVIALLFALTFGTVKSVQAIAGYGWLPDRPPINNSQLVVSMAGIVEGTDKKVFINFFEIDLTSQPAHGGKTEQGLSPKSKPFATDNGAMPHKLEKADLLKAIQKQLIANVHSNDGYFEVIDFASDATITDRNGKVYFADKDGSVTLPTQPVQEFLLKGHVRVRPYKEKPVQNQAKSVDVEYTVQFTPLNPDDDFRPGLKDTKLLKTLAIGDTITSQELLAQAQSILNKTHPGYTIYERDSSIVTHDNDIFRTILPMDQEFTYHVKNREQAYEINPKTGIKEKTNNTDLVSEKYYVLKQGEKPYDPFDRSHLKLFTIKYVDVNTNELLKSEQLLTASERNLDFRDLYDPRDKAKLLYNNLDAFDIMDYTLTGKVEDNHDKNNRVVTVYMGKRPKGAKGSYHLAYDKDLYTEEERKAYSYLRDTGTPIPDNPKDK

Streptococcus = assay: GAS UMAA2166 growth inhibition – luminescence, BacTiterGlo, counter-screen for streptokinase expression inhibitor project, dose response (AID 1915); assay type: functional, organism-based;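 also: potency for reduction of bacterial viability or growth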
Vero = assay: viability of Vero cells under compound – cytotoxicity control for flavivirus capping enzyme inhibitors (AID 588742); assay type: functional; conditions: Chlorocebus sabaeus
Genome polyprotein = Genome polyprotein (dengue virus type 2, UniProt P29990); assay: flavivirus cap methylation enzyme inhibition – biochemical, confirmation dose response, primary screen (AID 588689); assay type: functional
[10] = bead-based luminescence quenchers, dual-tagged ARNT – biochemical, AlphaScreen, cherry-pick, artefact control for ARNT-TACC3 interaction inhibitor project, dose response (AID 651705); assay type: functional;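 also: AlphaScreen bead proximity signal that flags compounds interfering with the detection technology; potency reflects signal decrease which marks the compound as an assay artifact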
[11] = inhibition of ARNT PAS-B/TACC3 complex formation – biochemical, AlphaScreen, cherry-picked samples, confirmation (AID 651703); assay type: functional, Homo sapiens;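 also: His-tagged ARNT PAS-B domain paired with GST-TACC3 E629A dimer coactivator fragment; potency of inhibitors that break up the complex and lower AlphaScreen signal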
[12] = target: T3, ATP-dependent translocase ABCB1 (Homo sapiens, UniProt P08183); assay: inhibition of BCRP-mediated JC-1 efflux – Ig-MXP3 cells, flow cytometry, set 2, dose response (AID 504566); assay type: functional; conditions: read-out: EC50_MICROM_;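 also: flow cytometry median green fluorescence of retained JC-1 dye; potency of efflux pump inhibition measured as rising substrate retention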
[13] = target: T3, ATP-dependent translocase ABCB1; assay: P-gp JC-1 efflux blockade concentration-response – Jurkat-DNR cells, flow cytometry, set 2, dose response (AID 504569); assay type: functional; conditions: read-out: EC50_MICROM_;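 also: potency of pump inhibitors that raise cellular JC-1 green fluorescence up to the nicardipine level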
[14] = target: T4, Tyrosine-protein phosphatase non-receptor type 11 (Homo sapiens, UniProt Q06124); assay: PTPN11 enzyme inhibitors – biochemical, selectivity assay for STEP inhibitor project, dose response (AID 602367); assay type: functional; conditions: read-out: IC50_Mean
T4 sequence (Q06124 whole entry): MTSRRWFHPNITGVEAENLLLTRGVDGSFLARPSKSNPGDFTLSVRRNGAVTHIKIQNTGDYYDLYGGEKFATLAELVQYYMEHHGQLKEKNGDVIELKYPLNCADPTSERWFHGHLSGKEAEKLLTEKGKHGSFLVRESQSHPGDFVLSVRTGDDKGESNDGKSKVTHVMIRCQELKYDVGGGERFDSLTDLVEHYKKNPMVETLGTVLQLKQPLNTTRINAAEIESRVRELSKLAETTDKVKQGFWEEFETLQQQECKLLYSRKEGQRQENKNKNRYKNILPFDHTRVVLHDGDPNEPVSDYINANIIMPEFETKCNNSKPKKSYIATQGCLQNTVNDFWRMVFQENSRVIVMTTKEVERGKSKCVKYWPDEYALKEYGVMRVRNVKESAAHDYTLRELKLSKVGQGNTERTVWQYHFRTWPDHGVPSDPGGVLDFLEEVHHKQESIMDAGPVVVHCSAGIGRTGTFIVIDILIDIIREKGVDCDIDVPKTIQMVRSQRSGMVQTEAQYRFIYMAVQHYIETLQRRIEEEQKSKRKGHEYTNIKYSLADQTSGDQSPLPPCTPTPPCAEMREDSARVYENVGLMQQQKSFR

[15] = target: T5, Tyrosine-protein phosphatase non-receptor type 5 (Homo sapiens, UniProt P54829); assay: PTPN5 enzyme inhibition – biochemical, fluorescence intensity, uHTS hits, confirmation (AID 602372); assay type: functional; conditions: read-out: IC50_Mean
T5 sequence (P54829 whole entry): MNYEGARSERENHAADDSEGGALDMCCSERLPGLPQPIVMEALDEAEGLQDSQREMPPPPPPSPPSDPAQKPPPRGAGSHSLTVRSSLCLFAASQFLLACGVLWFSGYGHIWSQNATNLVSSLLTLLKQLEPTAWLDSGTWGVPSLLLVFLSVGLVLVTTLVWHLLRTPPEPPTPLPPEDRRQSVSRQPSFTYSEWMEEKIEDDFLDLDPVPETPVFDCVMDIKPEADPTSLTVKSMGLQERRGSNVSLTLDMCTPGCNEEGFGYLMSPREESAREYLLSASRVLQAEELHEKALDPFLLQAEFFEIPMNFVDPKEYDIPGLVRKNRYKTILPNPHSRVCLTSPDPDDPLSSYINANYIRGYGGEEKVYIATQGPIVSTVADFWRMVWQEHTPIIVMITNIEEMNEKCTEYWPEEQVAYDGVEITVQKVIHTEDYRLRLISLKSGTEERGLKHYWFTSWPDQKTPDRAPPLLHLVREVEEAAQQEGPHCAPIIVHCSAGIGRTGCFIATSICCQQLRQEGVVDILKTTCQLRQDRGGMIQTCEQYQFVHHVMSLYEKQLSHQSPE

[16] = target: Dual specificity protein phosphatase 3 (Homo sapiens, UniProt P51452); assay: VHR phosphatase inhibition, dose response, selectivity assay for STEP inhibitor project, biochemical (AID 602374); assay type: functional; conditions: read-out: IC50_Mean
[17] = target: T6, Low molecular weight phosphotyrosine protein phosphatase (Homo sapiens, UniProt P24666); assay type: functional; conditions: read-out: IC50_Mean
T6 sequence (P24666 whole entry): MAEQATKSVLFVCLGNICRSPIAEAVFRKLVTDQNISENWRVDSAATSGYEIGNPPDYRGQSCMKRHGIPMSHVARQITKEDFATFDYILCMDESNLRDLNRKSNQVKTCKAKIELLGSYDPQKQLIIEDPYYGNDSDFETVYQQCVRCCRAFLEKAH

[18] = target: T6, Low molecular weight phosphotyrosine protein phosphatase; assay type: functional; conditions: read-out: IC50_Mean; remark: listed apart in the source
[19] = target: T7, Apoptotic protease-activating factor 1 (Homo sapiens, UniProt O14727); assay: SAR analysis of small molecule Activators of Apaf-1 in a Fluorescent assay.; assay type: functional; conditions: read-out: EC50_Mean;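 also: caspase-3 cleavage of fluorogenic Rh110 DEVD substrate downstream of apoptosome activation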
T7 sequence (O14727 whole entry): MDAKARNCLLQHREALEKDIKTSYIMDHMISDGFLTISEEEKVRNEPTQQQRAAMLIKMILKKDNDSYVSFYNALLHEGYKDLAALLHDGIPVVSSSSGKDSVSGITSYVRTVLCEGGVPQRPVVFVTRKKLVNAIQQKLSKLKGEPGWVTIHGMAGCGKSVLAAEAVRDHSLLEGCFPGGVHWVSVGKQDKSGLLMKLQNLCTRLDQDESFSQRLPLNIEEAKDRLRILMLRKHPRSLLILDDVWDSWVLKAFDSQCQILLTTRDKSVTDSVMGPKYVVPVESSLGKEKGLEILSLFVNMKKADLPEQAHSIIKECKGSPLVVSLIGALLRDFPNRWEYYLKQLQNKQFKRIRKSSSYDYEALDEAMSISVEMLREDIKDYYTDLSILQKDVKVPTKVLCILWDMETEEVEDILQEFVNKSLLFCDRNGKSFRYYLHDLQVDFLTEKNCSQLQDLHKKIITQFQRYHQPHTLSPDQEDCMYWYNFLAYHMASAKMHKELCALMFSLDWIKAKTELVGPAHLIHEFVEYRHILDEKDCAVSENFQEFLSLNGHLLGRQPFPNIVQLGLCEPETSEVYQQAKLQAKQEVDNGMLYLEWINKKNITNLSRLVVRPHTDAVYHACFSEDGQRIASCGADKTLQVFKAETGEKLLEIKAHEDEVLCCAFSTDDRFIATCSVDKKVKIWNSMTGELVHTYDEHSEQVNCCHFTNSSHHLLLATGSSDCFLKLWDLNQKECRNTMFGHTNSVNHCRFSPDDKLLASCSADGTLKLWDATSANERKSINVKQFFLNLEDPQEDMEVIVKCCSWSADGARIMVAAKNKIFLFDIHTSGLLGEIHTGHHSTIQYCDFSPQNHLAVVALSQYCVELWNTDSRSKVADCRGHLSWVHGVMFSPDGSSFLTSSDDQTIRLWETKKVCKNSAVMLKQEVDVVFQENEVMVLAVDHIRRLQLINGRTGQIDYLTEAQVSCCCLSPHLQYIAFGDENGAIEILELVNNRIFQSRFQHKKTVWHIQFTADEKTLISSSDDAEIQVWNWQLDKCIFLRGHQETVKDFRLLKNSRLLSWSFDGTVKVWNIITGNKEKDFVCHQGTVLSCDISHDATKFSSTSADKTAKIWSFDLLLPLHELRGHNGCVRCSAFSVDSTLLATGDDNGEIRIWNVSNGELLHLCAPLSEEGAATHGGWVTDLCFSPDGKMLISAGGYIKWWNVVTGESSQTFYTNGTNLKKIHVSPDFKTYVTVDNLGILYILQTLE

T3 sequence (P08183 whole entry): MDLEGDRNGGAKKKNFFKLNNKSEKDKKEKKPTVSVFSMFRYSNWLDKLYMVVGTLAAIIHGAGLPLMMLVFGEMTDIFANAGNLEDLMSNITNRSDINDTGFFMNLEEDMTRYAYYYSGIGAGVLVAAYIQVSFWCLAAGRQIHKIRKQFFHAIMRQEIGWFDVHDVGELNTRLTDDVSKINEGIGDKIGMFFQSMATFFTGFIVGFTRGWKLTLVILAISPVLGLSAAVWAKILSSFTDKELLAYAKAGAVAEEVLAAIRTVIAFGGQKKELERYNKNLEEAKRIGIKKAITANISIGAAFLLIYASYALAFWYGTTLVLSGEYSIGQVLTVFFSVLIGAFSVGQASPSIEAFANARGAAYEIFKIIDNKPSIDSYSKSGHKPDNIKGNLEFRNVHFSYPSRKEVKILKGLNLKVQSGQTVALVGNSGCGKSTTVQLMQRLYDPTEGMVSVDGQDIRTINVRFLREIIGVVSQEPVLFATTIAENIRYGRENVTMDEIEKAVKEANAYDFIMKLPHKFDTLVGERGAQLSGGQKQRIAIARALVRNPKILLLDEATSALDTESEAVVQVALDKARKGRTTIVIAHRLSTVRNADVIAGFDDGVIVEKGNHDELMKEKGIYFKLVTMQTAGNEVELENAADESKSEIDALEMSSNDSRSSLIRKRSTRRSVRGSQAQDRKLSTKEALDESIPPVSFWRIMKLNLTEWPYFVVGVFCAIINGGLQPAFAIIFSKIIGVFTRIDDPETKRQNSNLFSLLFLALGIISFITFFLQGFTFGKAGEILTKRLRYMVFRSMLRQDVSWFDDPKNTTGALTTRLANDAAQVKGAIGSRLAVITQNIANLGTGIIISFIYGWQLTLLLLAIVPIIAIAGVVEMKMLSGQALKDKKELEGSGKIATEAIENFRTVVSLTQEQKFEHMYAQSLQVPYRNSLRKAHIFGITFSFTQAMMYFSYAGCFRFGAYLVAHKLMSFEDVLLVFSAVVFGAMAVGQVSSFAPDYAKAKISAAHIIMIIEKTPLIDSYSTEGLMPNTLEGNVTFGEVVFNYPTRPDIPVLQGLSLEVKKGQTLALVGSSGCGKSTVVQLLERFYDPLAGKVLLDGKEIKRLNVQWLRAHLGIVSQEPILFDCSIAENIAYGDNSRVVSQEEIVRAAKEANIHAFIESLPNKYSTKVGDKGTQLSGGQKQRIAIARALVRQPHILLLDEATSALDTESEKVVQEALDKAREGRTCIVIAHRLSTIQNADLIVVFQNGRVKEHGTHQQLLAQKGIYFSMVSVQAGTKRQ
T1 sequence (P10145 whole entry): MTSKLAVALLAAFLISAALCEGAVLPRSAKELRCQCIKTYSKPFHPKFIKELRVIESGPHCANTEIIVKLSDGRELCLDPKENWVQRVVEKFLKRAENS
Chain of Dual specificity protein phosphatase 3 (P51452 whole entry): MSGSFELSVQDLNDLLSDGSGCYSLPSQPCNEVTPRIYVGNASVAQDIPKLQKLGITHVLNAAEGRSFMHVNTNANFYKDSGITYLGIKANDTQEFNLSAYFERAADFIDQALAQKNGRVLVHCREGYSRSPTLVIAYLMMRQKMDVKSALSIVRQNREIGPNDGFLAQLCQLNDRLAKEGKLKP
Chain of Nonstructural protein 1 (Q194T2 whole entry): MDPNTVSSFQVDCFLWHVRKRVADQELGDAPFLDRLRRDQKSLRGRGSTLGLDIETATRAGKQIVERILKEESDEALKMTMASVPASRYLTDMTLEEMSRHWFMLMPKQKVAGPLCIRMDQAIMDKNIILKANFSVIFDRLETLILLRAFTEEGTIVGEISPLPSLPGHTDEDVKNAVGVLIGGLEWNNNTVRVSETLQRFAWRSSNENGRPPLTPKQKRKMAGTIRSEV
Chain of Delta-type opioid receptor (P41143 whole entry): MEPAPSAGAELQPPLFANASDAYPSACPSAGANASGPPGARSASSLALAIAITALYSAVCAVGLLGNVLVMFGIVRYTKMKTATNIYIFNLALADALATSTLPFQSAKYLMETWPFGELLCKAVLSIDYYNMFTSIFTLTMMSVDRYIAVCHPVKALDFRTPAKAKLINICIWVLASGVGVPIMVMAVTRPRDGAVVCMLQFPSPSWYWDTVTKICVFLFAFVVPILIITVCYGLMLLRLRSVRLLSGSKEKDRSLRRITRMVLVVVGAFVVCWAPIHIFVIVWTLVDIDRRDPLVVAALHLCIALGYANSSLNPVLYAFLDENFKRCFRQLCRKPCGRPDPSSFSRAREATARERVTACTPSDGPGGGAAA
Chain of Genome polyprotein (P29990 2492-3391 limits assumed): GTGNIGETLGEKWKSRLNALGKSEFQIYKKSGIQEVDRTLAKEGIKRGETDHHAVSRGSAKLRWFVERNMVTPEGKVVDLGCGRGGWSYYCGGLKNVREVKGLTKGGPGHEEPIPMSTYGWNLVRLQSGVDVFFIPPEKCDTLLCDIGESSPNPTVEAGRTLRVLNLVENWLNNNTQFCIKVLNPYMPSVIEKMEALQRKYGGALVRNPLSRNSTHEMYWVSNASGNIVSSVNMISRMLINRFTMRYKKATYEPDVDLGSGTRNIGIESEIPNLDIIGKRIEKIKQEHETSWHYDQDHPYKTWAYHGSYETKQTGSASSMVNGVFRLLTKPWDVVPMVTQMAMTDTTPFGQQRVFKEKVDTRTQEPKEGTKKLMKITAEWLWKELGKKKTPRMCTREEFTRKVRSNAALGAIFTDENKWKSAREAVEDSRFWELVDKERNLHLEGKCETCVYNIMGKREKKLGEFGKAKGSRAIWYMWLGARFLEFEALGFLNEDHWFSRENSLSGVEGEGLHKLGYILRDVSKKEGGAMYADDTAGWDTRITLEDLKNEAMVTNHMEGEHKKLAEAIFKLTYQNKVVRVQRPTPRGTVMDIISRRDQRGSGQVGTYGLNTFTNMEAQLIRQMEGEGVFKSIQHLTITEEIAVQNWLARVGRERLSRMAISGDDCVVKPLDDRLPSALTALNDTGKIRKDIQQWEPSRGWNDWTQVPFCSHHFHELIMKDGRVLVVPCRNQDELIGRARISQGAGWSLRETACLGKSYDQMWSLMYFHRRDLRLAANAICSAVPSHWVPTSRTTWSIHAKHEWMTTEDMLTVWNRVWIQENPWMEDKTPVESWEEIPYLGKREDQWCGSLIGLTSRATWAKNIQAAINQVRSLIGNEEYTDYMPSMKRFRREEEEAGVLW
Chain of Ras and Rab interactor 1/Tyrosine-protein kinase ABL1 (P00519 whole entry): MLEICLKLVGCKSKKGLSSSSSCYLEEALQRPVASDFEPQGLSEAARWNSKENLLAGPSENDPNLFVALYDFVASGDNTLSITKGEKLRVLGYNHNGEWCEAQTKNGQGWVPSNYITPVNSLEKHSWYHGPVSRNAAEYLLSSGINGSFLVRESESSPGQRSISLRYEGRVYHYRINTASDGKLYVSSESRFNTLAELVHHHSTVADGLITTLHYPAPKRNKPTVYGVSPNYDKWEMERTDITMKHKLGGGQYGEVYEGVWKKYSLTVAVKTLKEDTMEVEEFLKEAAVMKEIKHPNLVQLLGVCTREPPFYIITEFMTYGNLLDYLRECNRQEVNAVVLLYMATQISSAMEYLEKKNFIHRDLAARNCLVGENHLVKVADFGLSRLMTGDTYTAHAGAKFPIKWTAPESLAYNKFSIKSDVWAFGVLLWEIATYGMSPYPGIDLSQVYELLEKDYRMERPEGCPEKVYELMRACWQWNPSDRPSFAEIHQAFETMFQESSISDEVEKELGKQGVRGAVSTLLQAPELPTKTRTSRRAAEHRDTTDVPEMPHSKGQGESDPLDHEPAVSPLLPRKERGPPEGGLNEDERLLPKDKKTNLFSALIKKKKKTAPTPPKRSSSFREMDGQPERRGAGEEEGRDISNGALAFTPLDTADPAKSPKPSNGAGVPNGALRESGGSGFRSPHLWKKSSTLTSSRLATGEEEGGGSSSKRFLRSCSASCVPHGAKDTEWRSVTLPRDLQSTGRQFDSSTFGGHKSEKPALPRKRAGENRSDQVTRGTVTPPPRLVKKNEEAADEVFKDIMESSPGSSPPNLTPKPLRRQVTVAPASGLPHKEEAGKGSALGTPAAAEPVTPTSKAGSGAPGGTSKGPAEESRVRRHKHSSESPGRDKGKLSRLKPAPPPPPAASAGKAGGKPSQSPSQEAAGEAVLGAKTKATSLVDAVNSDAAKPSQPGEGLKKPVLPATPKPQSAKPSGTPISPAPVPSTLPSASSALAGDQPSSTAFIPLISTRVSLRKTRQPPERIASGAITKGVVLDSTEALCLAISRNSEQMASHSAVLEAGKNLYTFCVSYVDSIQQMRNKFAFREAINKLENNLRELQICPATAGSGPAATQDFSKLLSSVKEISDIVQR
Chain of Ras and Rab interactor 1/Tyrosine-protein kinase ABL1 (Q13671 whole entry): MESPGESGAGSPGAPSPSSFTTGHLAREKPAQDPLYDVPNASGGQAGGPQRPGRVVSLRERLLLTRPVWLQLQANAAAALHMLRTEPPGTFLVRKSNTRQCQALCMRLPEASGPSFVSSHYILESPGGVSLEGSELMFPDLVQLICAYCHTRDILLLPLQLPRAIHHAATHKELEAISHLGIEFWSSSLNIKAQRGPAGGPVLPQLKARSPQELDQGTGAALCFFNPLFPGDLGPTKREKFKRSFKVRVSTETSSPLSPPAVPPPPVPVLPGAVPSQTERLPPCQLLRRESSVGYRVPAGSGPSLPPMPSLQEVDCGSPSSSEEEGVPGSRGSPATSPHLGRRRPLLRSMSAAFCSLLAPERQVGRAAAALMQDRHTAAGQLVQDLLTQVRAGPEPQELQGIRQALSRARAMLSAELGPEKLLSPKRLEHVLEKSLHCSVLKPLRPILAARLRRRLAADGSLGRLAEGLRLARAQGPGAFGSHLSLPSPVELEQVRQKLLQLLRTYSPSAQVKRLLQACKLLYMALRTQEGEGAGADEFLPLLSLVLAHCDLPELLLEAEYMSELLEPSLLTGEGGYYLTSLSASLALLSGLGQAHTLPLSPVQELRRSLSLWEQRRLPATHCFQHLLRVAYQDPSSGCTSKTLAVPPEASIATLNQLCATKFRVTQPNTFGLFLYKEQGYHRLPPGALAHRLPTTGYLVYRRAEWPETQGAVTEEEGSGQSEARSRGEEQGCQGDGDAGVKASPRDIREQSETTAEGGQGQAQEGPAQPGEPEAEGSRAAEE

For `Fc1cccc(Cl)c1/C=N/Nc1c(Cl)cncc1Cl`, the IC50 (Interleukin-8 [1]) was > 79 µM (inactive) and the IC50 (Interleukin-8 [2]) was 14.8 µM (inactive).
With `Cc1nc2nc(C)n(CCN3CCOCC3)c(=O)c2c(-c2cccc([N+](=O)[O-])c2)c1C(=O)CCCCCCCCCCN1CCC(c2ccccc2)(c2ccccc2)CC1` the IC50 (Nonstructural protein 1) was 21.9 µM (active), the EC50 [3] was > 92.4 µM (inactive) and the EC50 (Mu-type opioid receptor) was > 92.4 µM (inactive). The EC50 [4] was > 92.4 µM (inactive), the IC50 [5] was 1.35 µM (active) and the AC50 [6] was 7.38 µM (active). For the same compound, the AC50 [7] was 14.7 µM (active) and the AC50 [8] was 11.3 µM (active).
For `COc1cccc(-c2coc3c(C)c4oc(=O)c(CCC(=O)O)c(C)c4cc23)c1`, the EC50 [9] was 2.4 µM (active), the EC50 (Streptokinase A) was > 150 µM (not active) and the EC50 (Streptococcus) was 13.4 µM (active). The CC50 (Vero) was > 40 µM (active), the IC50 (Genome polyprotein) was 40.5 µM (active) and the AC50 [10] was 98 µM (active). The AC50 [11] was 130 µM (active).
In the case of `O=C(c1ccccc1Cl)N1CCN(c2cc(-c3ccccc3)nc3cc(-c4cccc(Cl)c4)nn23)CC1`, the EC50 [12] is reported as 1.15 µM (active) and the EC50 [13] is reported as 1.07 µM (active).
For `O=C(N/N=C/c1cccc([N+](=O)[O-])c1)c1ccc(Br)cc1`, the IC50 [14] was 6.62 µM (active), the IC50 [15] was 8.16 µM (active) and the IC50 [16] was 5.03 µM (active). The IC50 [17] was 15.1 µM (active) and the IC50 [18] was 22.8 µM (inactive).
For `Cc1cc(C)c(O)c(N2CC(C(=O)O)CC2=O)c1` (stereo not given), the EC50 [19] was > 100 µM (inactive).
